Experimental data as given in the supplement of paper PMC4862054.

Assays:
Conditions in all cases: incubation time: 72 h
[1] = system: CAL-51; assay: normalised response (% of control), CellTox Green; higher = less cell death (100 = DMSO, 0 = benzethonium chloride kill control)
Outline: (§1)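 Breast cancer cell lines in 20 µl suspension were added to 384-well plates containing compound at 5 concentrations, spaced in 10-fold steps across a 10,000-fold range chosen for each compound, and incubated for 72 h. CellTox Green fluorescence was read at 485/520 nm, followed by CellTiter-Glo luminescence after 10 min at room temperature. Signals on each plate were normalised so that 0.1 % DMSO equals 100 and a positive kill control equals 0. Every value in the table is the normalised signal at one concentration of the series.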

[2] = system: BT-474; assay: as above
Outline: as §1

[3] = system: BT-549; assay: as above
Outline: as §1

[4] = system: CAL-85-1; assay: as above
Outline: as §1

[5] = system: CAL-120; assay: as above
Outline: as §1

[6] = system: MFM-223; assay: as above
Outline: as §1

[7] = system: HDQ-P1; assay: as above
Outline: as §1

[8] = system: MDA-MB-436; assay: as above
Outline: as §1

[9] = system: MDA-MB-231; assay: as above
Outline: as §1

[10] = system: MDA-MB-453; assay: as above
Outline: as §1

[11] = system: DU-4475; assay: as above
Outline: as §1

[12] = system: HCC1599; assay: as above
Outline: as §1

[13] = system: MDA-MB-468; assay: as above
Outline: as §1

[14] = system: HCC1143; assay: as above
Outline: as §1

[15] = system: CAL-148; assay: as above
Outline: as §1

[16] = system: Hs578T; assay: as above
Outline: as §1

[17] = system: HCC1937; assay: as above
Outline: as §1

[18] = system: MCF-10A; assay: as above
Outline: as §1

[19] = system: CAL-51; assay: normalised response (% of control), CellTiter-Glo; higher = more viable cells (100 = DMSO, 0 = benzethonium chloride kill control)
Outline: as §1

[20] = system: BT-474; assay: as above
Outline: as §1

[21] = system: BT-549; assay: as above
Outline: as §1

[22] = system: CAL-85-1; assay: as above
Outline: as §1

[23] = system: CAL-120; assay: as above
Outline: as §1

[24] = system: MFM-223; assay: as above
Outline: as §1

[25] = system: HDQ-P1; assay: as above
Outline: as §1

[26] = system: MDA-MB-436; assay: as above
Outline: as §1

[27] = system: MDA-MB-231; assay: as above
Outline: as §1

[28] = system: MDA-MB-453; assay: as above
Outline: as §1

[29] = system: DU-4475; assay: as above
Outline: as §1

[30] = system: HCC1599; assay: as above
Outline: as §1

[31] = system: MDA-MB-468; assay: as above
Outline: as §1

[32] = system: HCC1143; assay: as above
Outline: as §1

[33] = system: CAL-148; assay: as above
Outline: as §1

[34] = system: Hs578T; assay: as above
Outline: as §1

[35] = system: HCC1937; assay: as above
Outline: as §1

[36] = system: MCF-10A; assay: as above
Outline: as §1

[37] = system: SK-BR-3; assay: as above
Outline: as §1

SMILES	normalised response [1] [%]	normalised response [2] [%]	normalised response [3] [%]	normalised response [4] [%]	normalised response [5] [%]	normalised response [6] [%]	normalised response [7] [%]	normalised response [8] [%]	normalised response [9] [%]	normalised response [10] [%]	normalised response [11] [%]	normalised response [12] [%]	normalised response [13] [%]	normalised response [14] [%]	normalised response [15] [%]	normalised response [16] [%]	normalised response [17] [%]	normalised response [18] [%]	normalised response [19] [%]	normalised response [20] [%]	normalised response [21] [%]	normalised response [22] [%]	normalised response [23] [%]	normalised response [24] [%]	normalised response [25] [%]	normalised response [26] [%]	normalised response [27] [%]	normalised response [28] [%]	normalised response [29] [%]	normalised response [30] [%]	normalised response [31] [%]	normalised response [32] [%]	normalised response [33] [%]	normalised response [34] [%]	normalised response [35] [%]	normalised response [36] [%]	normalised response [37] [%]
O=C(Cc1ccc(-c2ccc(OCCN3CCOCC3)cc2)cn1)NCc1ccccc1 [KX2-391] (100 nM)	35.6	85.1	78.5	30.9	87.3	75.7	80.7	76.9	51.3	101	95.7	93.7	-39.4	109	65.5	-25.9	98.5	55.3	32.2	66	50.1	31.8	67.8	63.1	72.6	39.5	64.4	72.7	49.4	32.3	44.6	44.7	40.6	29.9	73.2	61	19.5
CCN(CC)CCCC(C)Nc1c2ccc(Cl)cc2nc2ccc(OC)cc12 (centres undefined) [Mepacrine] (500 nM)	66.9	103	103	104	-33	96.9	85.1	82.7	99.1	104	108	93.8	109	109	74.7	63.5	111	85.1	64	98.9	113	103	44.1	97.2	104	106	103	101	99.8	101	93.1	104	86.1	98.7	98.4	105	90.8
